From article PMC10408569, “Recruitment of hexahydroquinoline as anticancer scaffold targeting inhibition of wild and mutants EGFR (EGFR^WT, EGFR^T790M, and EGFR^L858R)” (Journal of Enzyme Inhibition and Medicinal Chemistry, 2023)

What was measured:
CCRF-CEM = assay: NCI-60 anticancer screening (SRB); assay type: cell-based; details: Homo sapiens, leukemia, one dose 10 μM, read-out: Growth Inhibition Percentage (GI %)
SW-620 = assay: NCI-60 anticancer screening (SRB); assay type: cell-based; details: Homo sapiens; SW-620, colon cancer; one dose 10 μM; read-out: Growth Inhibition Percentage (GI %)
NCI/ADR-RES = assay: NCI-60 anticancer screening (SRB); assay type: cell-based; details: Homo sapiens, ovarian cancer, one dose 10 μM, read-out: Growth Inhibition Percentage (GI %)
NCI 60 cancer cell lines = assay: NCI-60 anticancer screening (SRB), whole panel; assay type: cell-based, human; details: mean across the NCI-60 panel; one dose 10 μM
MDA-MB-231 = assay: NCI-60 anticancer screening (SRB); assay type: cell-based; details: Homo sapiens; MDA-MB-231, breast cancer; one dose 10 μM; read-out: Growth Inhibition Percentage (GI %)
HCC-2998 = assay: NCI-60 anticancer screening (SRB); assay type: cell-based; details: Homo sapiens; HCC-2998, colon cancer; one dose 10 μM; read-out: Growth Inhibition Percentage (GI %)
OVCAR-8 = assay: NCI-60 anticancer screening (SRB); assay type: cell-based; details: Homo sapiens; OVCAR-8, ovarian cancer; one dose 10 μM; read-out: Growth Inhibition Percentage (GI %)
HL-60(TB) = assay: NCI-60 anticancer screening (SRB); assay type: cell-based; details: Homo sapiens, leukemia, one dose 10 μM, read-out: Growth Inhibition Percentage (GI %)
EGFR^L858R = EGFR^L858R (Homo sapiens, UniProt P00533, L858R); assay: biochemical
TK-10 = assay: NCI-60 anticancer screening (SRB); assay type: cell-based; details: Homo sapiens; TK-10, renal cancer; one dose 10 μM; read-out: Growth Inhibition Percentage (GI %)
OVCAR-4 = assay: NCI-60 anticancer screening (SRB); assay type: cell-based; details: Homo sapiens; OVCAR-4, ovarian cancer; one dose 10 μM; read-out: Growth Inhibition Percentage (GI %)
COLO 205 = assay: NCI-60 anticancer screening (SRB); assay type: cell-based; details: Homo sapiens; COLO 205, colon cancer; one dose 10 μM; read-out: Growth Inhibition Percentage (GI %)
SK-OV-3 = assay: NCI-60 anticancer screening (SRB); assay type: cell-based; details: Homo sapiens; SK-OV-3, ovarian cancer; one dose 10 μM; read-out: Growth Inhibition Percentage (GI %)
EGFR^T790M = EGFR^T790M (Homo sapiens, UniProt P00533, T790M); assay: biochemical
RXF 393 = assay: NCI-60 anticancer screening (SRB); assay type: cell-based; details: Homo sapiens; RXF 393, renal cancer; one dose 10 μM; read-out: Growth Inhibition Percentage (GI %)
NCI-H322M = assay: NCI-60 anticancer screening (SRB); assay type: cell-based; details: Homo sapiens, NSC lung cancer, one dose 10 μM, read-out: Growth Inhibition Percentage (GI %)
MDA-MB-435 = assay: NCI-60 anticancer screening (SRB); assay type: cell-based; details: Homo sapiens; MDA-MB-435, melanoma; one dose 10 μM; read-out: Growth Inhibition Percentage (GI %)
UACC-62 = assay: NCI-60 anticancer screening (SRB); assay type: cell-based; details: Homo sapiens; UACC-62, melanoma; one dose 10 μM; read-out: Growth Inhibition Percentage (GI %)
PC-3 = assay: NCI-60 anticancer screening (SRB); assay type: cell-based; details: Homo sapiens; PC-3, prostate cancer; one dose 10 μM; read-out: Growth Inhibition Percentage (GI %)
UO-31 = assay: NCI-60 anticancer screening (SRB); assay type: cell-based; details: Homo sapiens; UO-31, renal cancer; one dose 10 μM; read-out: Growth Inhibition Percentage (GI %)
OVCAR-3 = assay: NCI-60 anticancer screening (SRB); assay type: cell-based; details: Homo sapiens; OVCAR-3, ovarian cancer; one dose 10 μM; read-out: Growth Inhibition Percentage (GI %)
SK-MEL-28 = assay: NCI-60 anticancer screening (SRB); assay type: cell-based; details: Homo sapiens; SK-MEL-28, melanoma; one dose 10 μM; read-out: Growth Inhibition Percentage (GI %)
KM 12 = assay: NCI-60 anticancer screening (SRB); assay type: cell-based; details: Homo sapiens, KM12; KM 12, colon cancer; one dose 10 μM; read-out: Growth Inhibition Percentage (GI %)
BT-549 = assay: NCI-60 anticancer screening (SRB); assay type: cell-based; details: Homo sapiens; BT-549, breast cancer; one dose 10 μM; read-out: Growth Inhibition Percentage (GI %)
HS 578T = assay: NCI-60 anticancer screening (SRB); assay type: cell-based; details: Homo sapiens; HS 578T, breast cancer; one dose 10 μM; read-out: Growth Inhibition Percentage (GI %)
A549/ATCC = assay: NCI-60 anticancer screening (SRB); assay type: cell-based; details: Homo sapiens; A549/ATCC, NSC lung cancer; one dose 10 μM; read-out: Growth Inhibition Percentage (GI %)
MDA-MB-468 = assay: NCI-60 anticancer screening (SRB); assay type: cell-based; details: Homo sapiens; MDA-MB-468, breast cancer; one dose 10 μM; read-out: Growth Inhibition Percentage (GI %)
MOLT-4 = assay: NCI-60 anticancer screening (SRB); assay type: cell-based; details: Homo sapiens; MOLT-4, leukemia; one dose 10 μM; read-out: Growth Inhibition Percentage (GI %)
EGFR^WT = EGFR^WT (Homo sapiens, UniProt P00533); assay: EGFR kinase inhibitory assay (HTRF)
MCF7 = assay: NCI-60 anticancer screening (SRB); assay type: cell-based; details: Homo sapiens; MCF7, breast cancer; one dose 10 μM; read-out: Growth Inhibition Percentage (GI %)
HCT-15 = assay: NCI-60 anticancer screening (SRB); assay type: cell-based; details: Homo sapiens; HCT-15, colon cancer; one dose 10 μM; read-out: Growth Inhibition Percentage (GI %)

Chain of EGFR^L858R (P00533 25-1210 L858R): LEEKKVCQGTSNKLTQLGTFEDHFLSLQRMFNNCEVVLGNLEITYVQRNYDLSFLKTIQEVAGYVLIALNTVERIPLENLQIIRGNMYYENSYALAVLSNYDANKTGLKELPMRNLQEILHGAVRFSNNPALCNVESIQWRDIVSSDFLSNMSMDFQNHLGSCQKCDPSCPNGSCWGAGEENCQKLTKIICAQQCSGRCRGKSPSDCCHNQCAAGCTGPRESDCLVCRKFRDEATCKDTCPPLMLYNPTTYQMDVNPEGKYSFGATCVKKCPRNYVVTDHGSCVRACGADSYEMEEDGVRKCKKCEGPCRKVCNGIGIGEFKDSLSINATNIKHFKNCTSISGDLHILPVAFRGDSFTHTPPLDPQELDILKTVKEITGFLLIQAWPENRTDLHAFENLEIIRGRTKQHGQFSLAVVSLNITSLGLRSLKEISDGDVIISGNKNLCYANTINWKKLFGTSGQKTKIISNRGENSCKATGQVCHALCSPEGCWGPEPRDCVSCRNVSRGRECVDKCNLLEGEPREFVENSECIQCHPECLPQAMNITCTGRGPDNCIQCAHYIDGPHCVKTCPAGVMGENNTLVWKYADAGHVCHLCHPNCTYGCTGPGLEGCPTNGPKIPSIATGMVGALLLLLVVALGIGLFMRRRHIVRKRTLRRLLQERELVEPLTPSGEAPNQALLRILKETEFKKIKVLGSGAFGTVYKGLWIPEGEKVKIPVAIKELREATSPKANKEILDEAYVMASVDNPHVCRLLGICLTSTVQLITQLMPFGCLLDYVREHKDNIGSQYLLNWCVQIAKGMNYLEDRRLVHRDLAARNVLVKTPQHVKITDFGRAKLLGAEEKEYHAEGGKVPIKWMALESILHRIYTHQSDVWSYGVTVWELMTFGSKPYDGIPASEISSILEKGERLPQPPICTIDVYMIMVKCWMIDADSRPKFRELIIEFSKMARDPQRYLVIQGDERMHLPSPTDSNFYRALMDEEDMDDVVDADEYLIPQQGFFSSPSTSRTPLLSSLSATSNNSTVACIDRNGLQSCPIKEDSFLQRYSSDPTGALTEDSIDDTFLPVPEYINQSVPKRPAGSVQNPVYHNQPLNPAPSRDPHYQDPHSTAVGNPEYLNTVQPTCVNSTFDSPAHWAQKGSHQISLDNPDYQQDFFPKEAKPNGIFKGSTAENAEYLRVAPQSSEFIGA
Chain of EGFR^WT (P00533 25-1210): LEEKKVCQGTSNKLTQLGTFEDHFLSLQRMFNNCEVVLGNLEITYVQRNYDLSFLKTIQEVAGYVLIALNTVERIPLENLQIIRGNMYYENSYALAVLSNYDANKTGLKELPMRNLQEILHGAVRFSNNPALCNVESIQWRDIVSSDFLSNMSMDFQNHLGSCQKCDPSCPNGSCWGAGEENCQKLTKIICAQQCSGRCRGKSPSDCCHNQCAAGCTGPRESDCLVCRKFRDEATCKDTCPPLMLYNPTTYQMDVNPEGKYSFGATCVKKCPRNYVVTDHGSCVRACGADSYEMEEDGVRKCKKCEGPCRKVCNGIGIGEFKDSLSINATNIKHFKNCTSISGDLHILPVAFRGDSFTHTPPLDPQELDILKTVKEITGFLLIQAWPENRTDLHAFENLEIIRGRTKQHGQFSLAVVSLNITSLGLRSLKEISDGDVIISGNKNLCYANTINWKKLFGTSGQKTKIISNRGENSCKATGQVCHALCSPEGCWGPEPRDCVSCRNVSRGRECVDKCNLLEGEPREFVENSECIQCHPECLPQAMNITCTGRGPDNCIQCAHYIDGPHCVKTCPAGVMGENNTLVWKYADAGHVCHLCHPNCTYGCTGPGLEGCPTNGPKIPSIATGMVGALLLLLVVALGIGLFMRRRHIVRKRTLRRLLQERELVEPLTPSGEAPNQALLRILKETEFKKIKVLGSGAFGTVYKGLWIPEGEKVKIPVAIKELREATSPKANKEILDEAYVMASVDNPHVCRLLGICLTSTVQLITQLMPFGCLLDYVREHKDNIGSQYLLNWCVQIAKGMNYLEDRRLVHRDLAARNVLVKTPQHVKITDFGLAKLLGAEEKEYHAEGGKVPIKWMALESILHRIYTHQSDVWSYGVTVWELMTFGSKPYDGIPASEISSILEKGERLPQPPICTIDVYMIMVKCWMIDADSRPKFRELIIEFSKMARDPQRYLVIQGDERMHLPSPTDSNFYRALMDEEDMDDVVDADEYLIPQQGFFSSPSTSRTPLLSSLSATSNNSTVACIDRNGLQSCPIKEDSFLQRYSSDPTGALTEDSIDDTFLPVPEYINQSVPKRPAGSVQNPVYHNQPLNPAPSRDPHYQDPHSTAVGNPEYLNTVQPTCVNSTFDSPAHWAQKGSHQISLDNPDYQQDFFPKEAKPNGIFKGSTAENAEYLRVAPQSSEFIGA
Chain of EGFR^T790M (P00533 25-1210 T790M): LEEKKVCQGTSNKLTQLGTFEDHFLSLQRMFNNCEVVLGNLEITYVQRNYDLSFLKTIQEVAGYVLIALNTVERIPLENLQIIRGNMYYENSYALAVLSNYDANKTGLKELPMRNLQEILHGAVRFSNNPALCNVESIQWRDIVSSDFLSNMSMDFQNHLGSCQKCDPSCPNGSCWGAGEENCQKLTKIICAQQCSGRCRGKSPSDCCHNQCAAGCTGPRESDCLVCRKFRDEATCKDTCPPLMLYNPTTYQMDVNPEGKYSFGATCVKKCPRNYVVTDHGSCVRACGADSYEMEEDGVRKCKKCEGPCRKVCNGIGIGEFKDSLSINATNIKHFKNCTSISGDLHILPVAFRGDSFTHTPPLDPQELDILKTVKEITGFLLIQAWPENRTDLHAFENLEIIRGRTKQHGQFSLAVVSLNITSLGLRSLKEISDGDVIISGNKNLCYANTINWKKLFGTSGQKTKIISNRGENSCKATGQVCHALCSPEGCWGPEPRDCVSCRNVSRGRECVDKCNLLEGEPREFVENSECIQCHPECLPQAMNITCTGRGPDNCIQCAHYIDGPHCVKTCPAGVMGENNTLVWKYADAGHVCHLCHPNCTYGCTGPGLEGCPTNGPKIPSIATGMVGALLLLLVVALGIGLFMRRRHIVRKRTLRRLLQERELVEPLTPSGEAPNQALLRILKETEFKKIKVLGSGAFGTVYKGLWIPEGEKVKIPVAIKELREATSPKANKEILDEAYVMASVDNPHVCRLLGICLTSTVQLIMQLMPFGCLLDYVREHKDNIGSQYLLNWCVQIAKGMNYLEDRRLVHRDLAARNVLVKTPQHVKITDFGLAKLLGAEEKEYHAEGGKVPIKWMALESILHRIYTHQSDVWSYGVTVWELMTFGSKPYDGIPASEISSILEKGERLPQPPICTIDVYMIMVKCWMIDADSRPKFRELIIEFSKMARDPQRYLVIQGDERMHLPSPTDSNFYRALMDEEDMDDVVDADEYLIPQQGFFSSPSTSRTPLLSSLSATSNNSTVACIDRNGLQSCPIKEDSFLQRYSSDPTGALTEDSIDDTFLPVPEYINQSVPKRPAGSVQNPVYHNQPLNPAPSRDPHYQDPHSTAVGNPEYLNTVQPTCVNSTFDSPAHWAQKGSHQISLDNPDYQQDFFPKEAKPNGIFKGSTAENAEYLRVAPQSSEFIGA

CCOC(=O)C1=C(N)N(c2ccccc2)C2=C(C(=O)CC(C)(C)C2)C1c1ccccc1Cl (racemic) [6a, (±)-Ethyl 2-amino-4–(2-chlorophenyl)-7,7-dimethyl-5-oxo-1-phenyl-1,4,5,6,7,8-hexahydroquinoline-3-carboxylate]
inhibition at 10 µM (CCRF-CEM): 52% | inhibition at 10 µM (SW-620): 26% | inhibition at 10 µM (NCI/ADR-RES): 27% | GI % mean (NCI 60 cancer cell lines): 33% | inhibition at 10 µM (MDA-MB-231): 16% | inhibition at 10 µM (HCC-2998): 15% | inhibition at 10 µM (OVCAR-8): 17% | inhibition at 10 µM (HL-60(TB)): 123% | IC50 (EGFR^L858R): 490 ± 4 nM | inhibition at 10 µM (TK-10): < 10% | inhibition at 10 µM (OVCAR-4): 26% | inhibition at 10 µM (COLO 205): 35% | inhibition at 10 µM (SK-OV-3): < 10% | IC50 (EGFR^T790M): 610 ± 5 nM | inhibition at 10 µM (RXF 393): 22% | inhibition at 10 µM (NCI-H322M): 18% | inhibition at 10 µM (MDA-MB-435): 27% | inhibition at 10 µM (UACC-62): 56% | inhibition at 10 µM (PC-3): 71% | inhibition at 10 µM (UO-31): 45% | inhibition at 10 µM (OVCAR-3): 38% | inhibition at 10 µM (SK-MEL-28): 19% | inhibition at 10 µM (KM 12): 42% | inhibition at 10 µM (BT-549): 22% | inhibition at 10 µM (HS 578T): < 10% | inhibition at 10 µM (A549/ATCC): 25% | inhibition at 10 µM (MDA-MB-468): 50% | inhibition at 10 µM (MOLT-4): 75% | IC50 (EGFR^WT): 358 ± 160 nM | inhibition at 10 µM (MCF7): 44% | inhibition at 10 µM (HCT-15): 51%

CCOC(=O)C1=C(N)N(c2ccc(Cl)cc2)C2=C(C(=O)CC(C)(C)C2)C1c1ccccc1Cl (racemic) [6c, (±)-Ethyl 2-amino-4–(2-chlorophenyl)-1–(4-chlorophenyl)-7,7-dimethyl-5-oxo-1,4,5,6,7,8-hexahydroquinoline-3-carboxylate]
inhibition at 10 µM (CCRF-CEM): 40% | inhibition at 10 µM (SW-620): 48% | inhibition at 10 µM (NCI/ADR-RES): 24% | GI % mean (NCI 60 cancer cell lines): 34% | inhibition at 10 µM (MDA-MB-231): 24% | inhibition at 10 µM (HCC-2998): 24% | inhibition at 10 µM (OVCAR-8): 30% | inhibition at 10 µM (HL-60(TB)): 75% | IC50 (EGFR^L858R): 500 ± 4 nM | inhibition at 10 µM (TK-10): 43% | inhibition at 10 µM (OVCAR-4): 32% | inhibition at 10 µM (COLO 205): 62% | inhibition at 10 µM (SK-OV-3): 29% | IC50 (EGFR^T790M): 530 ± 4 nM | inhibition at 10 µM (RXF 393): < 10% | inhibition at 10 µM (NCI-H322M): < 10% | inhibition at 10 µM (MDA-MB-435): 29% | inhibition at 10 µM (UACC-62): 45% | inhibition at 10 µM (PC-3): 76% | inhibition at 10 µM (UO-31): 51% | inhibition at 10 µM (OVCAR-3): 44% | inhibition at 10 µM (SK-MEL-28): < 10% | inhibition at 10 µM (KM 12): 44% | inhibition at 10 µM (BT-549): 40% | inhibition at 10 µM (HS 578T): < 10% | inhibition at 10 µM (A549/ATCC): 51% | inhibition at 10 µM (MDA-MB-468): 60% | inhibition at 10 µM (MOLT-4): < 10% | IC50 (EGFR^WT): 277 ± 120 nM | inhibition at 10 µM (MCF7): 58% | inhibition at 10 µM (HCT-15): 62%

CCOC(=O)C1=C(N)N(c2ccc(Cl)cc2)C2=C(C(=O)CC(C)(C)C2)C1c1ccccc1OC (racemic) [6i, (±)-Ethyl 2-amino-1–(4-chlorophenyl)-4–(2-methoxyphenyl)-7,7-dimethyl-5-oxo-1,4,5,6,7,8-hexahydroquinoline-3-carboxylate]
inhibition at 10 µM (CCRF-CEM): 56% | inhibition at 10 µM (SW-620): 23% | inhibition at 10 µM (NCI/ADR-RES): 40% | GI % mean (NCI 60 cancer cell lines): 36% | inhibition at 10 µM (MDA-MB-231): 31% | inhibition at 10 µM (HCC-2998): 38% | inhibition at 10 µM (OVCAR-8): 12% | inhibition at 10 µM (HL-60(TB)): 69% | IC50 (EGFR^L858R): 230 ± 1 nM | inhibition at 10 µM (TK-10): < 10% | inhibition at 10 µM (OVCAR-4): 58% | inhibition at 10 µM (COLO 205): 50% | inhibition at 10 µM (SK-OV-3): < 10% | IC50 (EGFR^T790M): 450 ± 3 nM | inhibition at 10 µM (RXF 393): < 10% | inhibition at 10 µM (NCI-H322M): 15% | inhibition at 10 µM (MDA-MB-435): 51% | inhibition at 10 µM (UACC-62): 44% | inhibition at 10 µM (PC-3): 68% | inhibition at 10 µM (UO-31): 43% | inhibition at 10 µM (OVCAR-3): 19% | inhibition at 10 µM (SK-MEL-28): 36% | inhibition at 10 µM (KM 12): 54% | inhibition at 10 µM (BT-549): 20% | inhibition at 10 µM (HS 578T): 32% | inhibition at 10 µM (A549/ATCC): 52% | inhibition at 10 µM (MDA-MB-468): 39% | inhibition at 10 µM (MOLT-4): 89% | IC50 (EGFR^WT): 157 ± 30 nM | inhibition at 10 µM (MCF7): 65% | inhibition at 10 µM (HCT-15): 59%
